Assay results taken from US11819499B2, “Single-dose, ready-to-use injectable formulations” (BioSplice Therapeutics, Inc., priority 2016, dated 2023).
Marks after values point to notes of the source that are not given here.

Key:
Assay type in all cases: physicochemical
[1] = Competitive slurry experiments between polymorph forms (15 forms mixed, 3-5 days, XRD)
Procedure: In order to find out the thermodynamic stability between the different forms, several competitive slurry experiments were carried out. Form 1, Form 2, Form 2*, Form 3, Form 4, Form 4*, Form 4**, Form 5, Form 7, Form 8, Form 9, Form 10, Form 11, Form 11*, and Form 13 (10 mg for each) was mixed and slurried in 2 mL of solvent at both RT and 50° C. The solids were slurried for 3-5 days and then analyzed by XRD.

[2] = Drying or heating in a DSC chamber followed by XRD (form conversion)
Procedure: The Form 1 solid was dried at 75° C. under vacuum overnight, and XRD, DSC, and TGA scans were performed. […] However, the DSC scans indicated the absence of endotherm. The loss of the early peak on the DSC scan had no effect on the XRD trace, showing that the wide endotherm between 50-100° C. on DSC scan was due to the free solvent.
The Form 1 solid was heated in a DSC chamber to 305° C. (past the endotherm/exotherm around 280° C.), and then scanned by XRD. […] It can be concluded that the endotherm/exotherm around 280° C. might be due to melting/crystallization events.
The Form 2 solid was heated in a DSC machine to 90° C. (past the wide endotherm between 50-100° C.); to 270° C. (past the endotherm/exotherm around 240° C.); and finally to 330° C. (past the […]). The residual solid was analyzed by XRD. […] The wide endotherm between 50-100° C. might be free solvent or hydrate. […] Thus, the exotherm around 290° C. was a re-crystallization event. According to an XRD and DSC overlay, the behavior of Form 2* was similar to Form 2.
This has been confirmed for Forms 1 and 2.
Form 13 solid was heated in a DSC chamber to 170° C. (past the endotherm between 50-100° C.), and then scanned by XRD. […] It can be concluded that the endotherm between 50-100° C. is due to bonded water.
Form 13 solid was heated in a DSC chamber to 330° C. (past the endotherm/exotherm around 300° C.), and then scanned by XRD. […] It can be concluded that the endotherm/exotherm is due to melting/crystallization events.

[3] = Dynamic vapor sorption (DVS) scan
Description: The purity of the Form 13 sample was 98.8%; the KF of an undried Form 13 sample was 35.7%.

[4] = Exposure to relative humidity / air followed by XRD; conditions: for XRD after drying at 50° C. under vacuum: after air exposure overnight, then dried at 50° C. under vacuum; for XRD after exposure to air overnight: exposed to air overnight
Description: FIGS. 15A-15D are scans of Form 1 in the presence of increasing relative humidity (RH), an example of a non-stoichiometric or stoichiometric hydrate of polymorph Form 1 of the compound of Formula (I). FIG. 15A is an x-ray powder diffraction scan of Form 1 exposed to 10% RH as the anhydrous Form 1. FIG. 15B is an x-ray powder diffraction scan of Form 1 exposed to 20% RH as a partial hydrate of Form 1. FIG. 15C is an x-ray powder diffraction scan of Form 1 exposed to 30% RH as a hydrate of Form 1 (≈10-12% water uptake). FIG. 15D is an x-ray powder diffraction scan of Form 1 exposed to 90% RH as a full hydrate of Form 1 (≈17-20% water uptake). […] The hydrate lost its water below 30% RH. […] The crystal lattice of Form 1 expanded when water was sorbed, giving rise to XRD peaks at ˜5, ˜7 and ˜11 degrees while maintaining the main XRD pattern. The hydrates of Form 1 of a compound of Formula (I) (Form 11) were fully reversible, and lost water when exposed to % RH of less than 20%, turning Form 11 to hydrated forms of Form 1 and to the anhydrous Form 1. Solvates 1 and 2 solids were exposed to air overnight, and then analyzed by XRD. After the analysis, the solids were dried at 50° C. under vacuum, and then analyzed by XRD again.

[5] = Reslurry experiments (polymorph screen) in 39 pure and binary solvents at RT and 50° C. for 5 days, XRD of wet and dry samples
Procedure: Reslurry experiments in various solvents were performed. Approximately 30-80 mg of the starting solid (a non-stoichiometric or stoichiometric hydrate of Form 1 having between 1% and about 20% by weight water) was slurried in 39 different solvents (pure and binary solvents; the ratio of organic solvent/water (V/V) was 95%/5%) at RT and 50° C. for 5 days. Three solvates, one hydrate, and eleven non-solvated forms were identified. […] XRD of both wet and dry samples were scanned (FIG. 12A (dry sample)).
The slurry experiments identified 3 solvated forms from wet samples (Solvates 1, 2, and 3); 2 non-stoichiometric hydrates of Form 1 (Forms 12 and 13); and 11 non-solvated forms (Forms 1-11). In some instances, similar XRD scans with minor differences were obtained. These were considered to be part of the same class (e.g., the same form). For example, XRD scans of Form 2 and Form 2* were similar and were considered to belong to the same class. The solvated forms were obtained from wet sample analysis; after drying, the sample indicated a different XRD.
Solvate 1 was obtained from acetone at RT, and after drying, a low crystallinity solid was generated. Solvate 2 was obtained from acetone (at RT) and acetone/water (at RT), and after drying, Form 4** was generated. Solvate 3 was obtained from EtOH/water at RT, and after drying, Form 2 was generated.

[6] = reslurry in Acetonitrile/water (5% water), RT
[7] = reslurry in EA/water (5% water), RT
[8] = reslurry in Heptane/water (5% water), RT
[9] = reslurry in IPAc/water (5% water), RT
[10] = reslurry in MA/water (5% water), 50° C.
[11] = reslurry in MIBK/water (5% water), RT
[12] = reslurry in MeOH/water (5% water), RT
[13] = reslurry in MtBE/water (5% water), RT
[14] = reslurry in n-Butyl acetate/water (5% water), RT
[15] = reslurry in Acetone/water (5% water), RT
[16] = reslurry in EtOH/water (5% water), RT

Structure (SMILES): CC(C)CC(=O)Nc1cncc(-c2ccc3[nH]nc(-c4nc5c(-c6cccc(F)c6)cncc5[nH]4)c3c2)c1 [Form 2, N-(5-(3-(7-(3-fluorophenyl)-3H-imidazo[4,5-c]pyridin-2-yl)-1H-indazol-5-yl)pyridin-3-yl)-3-methylbutanamide]
- thermodynamic stability between forms (competitive slurry) ([1]; MeOH, EtOH, and acetone system at both RT and 50° C.): most stable form
- form after heating (XRD) ([2]; heated in a DSC machine to 90° C.): did not change
- form after heating (XRD) ([2]; heated to 270° C.): converted to low crystalline solids
- form after heating (XRD) ([2]; heated to 330° C.): converted to Form 9
- form when heated to just before melting ([2]; heated to just before melting at 364° C.): convert to Form 9

Structure (SMILES): CC(C)CC(=O)Nc1cncc(-c2ccc3[nH]nc(-c4nc5c(-c6cccc(F)c6)cncc5[nH]4)c3c2)c1 [Form 4, N-(5-(3-(7-(3-fluorophenyl)-3H-imidazo[4,5-c]pyridin-2-yl)-1H-indazol-5-yl)pyridin-3-yl)-3-methylbutanamide]
- thermodynamic stability between forms (competitive slurry) ([1]; EA at RT and 50° C.): most stable

Structure (SMILES): CC(C)CC(=O)Nc1cncc(-c2ccc3[nH]nc(-c4nc5c(-c6cccc(F)c6)cncc5[nH]4)c3c2)c1 [Form 9, N-(5-(3-(7-(3-fluorophenyl)-3H-imidazo[4,5-c]pyridin-2-yl)-1H-indazol-5-yl)pyridin-3-yl)-3-methylbutanamide]
- form before and after the DVS scan ([3]; DVS scan): did not change its form
- water absorption (DVS scan) ([3]; at 90% RH): 0.8%

Structure (SMILES): CC(C)CC(=O)Nc1cncc(-c2ccc3[nH]nc(-c4nc5c(-c6cccc(F)c6)cncc5[nH]4)c3c2)c1 [Form 11, N-(5-(3-(7-(3-fluorophenyl)-3H-imidazo[4,5-c]pyridin-2-yl)-1H-indazol-5-yl)pyridin-3-yl)-3-methylbutanamide]
- RH below which the hydrate lost its water ([4]; relative humidity): less than 20%

Structure (SMILES): CC(C)CC(=O)Nc1cncc(-c2ccc3[nH]nc(-c4nc5c(-c6cccc(F)c6)cncc5[nH]4)c3c2)c1 [Form 12, N-(5-(3-(7-(3-fluorophenyl)-3H-imidazo[4,5-c]pyridin-2-yl)-1H-indazol-5-yl)pyridin-3-yl)-3-methylbutanamide]
- Dry (form by XRD) [5, 6]: Form 1
- Wet (form by XRD) [5, 6]: Form 12
- Dry (form by XRD) [5, 7]: Form 1
- Wet (form by XRD) [5, 7]: Form 12
- Dry (form by XRD) [5, 8]: Form 12
- Wet (form by XRD) [5, 8]: Form 13
- Dry (form by XRD) [5, 9]: Form 1
- Wet (form by XRD) [5, 9]: Form 12
- Dry (form by XRD) [5, 10]: Form 4
- Wet (form by XRD) [5, 10]: Form 12
- Dry (form by XRD) [5, 11]: Form 1
- Wet (form by XRD) [5, 11]: Form 12
- Dry (form by XRD) [5, 12]: Form 1
- Wet (form by XRD) [5, 12]: Form 12
- Dry (form by XRD) [5, 13]: Form 1
- Wet (form by XRD) [5, 13]: Form 12
- Dry (form by XRD) [5, 14]: Form 12
- Wet (form by XRD) [5, 14]: Form 13

Structure (SMILES): CC(C)CC(=O)Nc1cncc(-c2ccc3[nH]nc(-c4nc5c(-c6cccc(F)c6)cncc5[nH]4)c3c2)c1 [Solvate 1, N-(5-(3-(7-(3-fluorophenyl)-3H-imidazo[4,5-c]pyridin-2-yl)-1H-indazol-5-yl)pyridin-3-yl)-3-methylbutanamide]
- Dry (form by XRD) ([5]; reslurry in Acetone, RT): Low
- Wet (form by XRD) ([5]; reslurry in Acetone, RT): Solvate 1
- XRD after drying at 50° C. under vacuum [4]: still low crystallinity solid
- XRD after exposure to air overnight [4]: converted to low crystallinity

Structure (SMILES): CC(C)CC(=O)Nc1cncc(-c2ccc3[nH]nc(-c4nc5c(-c6cccc(F)c6)cncc5[nH]4)c3c2)c1 [Solvate 2, N-(5-(3-(7-(3-fluorophenyl)-3H-imidazo[4,5-c]pyridin-2-yl)-1H-indazol-5-yl)pyridin-3-yl)-3-methylbutanamide]
- Dry (form by XRD) ([5]; reslurry in Acetone, 50° C.): Form 4**
- Wet (form by XRD) ([5]; reslurry in Acetone, 50° C.): Solvate 2
- Dry (form by XRD) [5, 15]: Form 4**
- Wet (form by XRD) [5, 15]: Solvate 2
- XRD after drying at 50° C. under vacuum [4]: remained the same as the solid exposed to air overnight
- XRD after exposure to air overnight [4]: changed a little

Structure (SMILES): CC(C)CC(=O)Nc1cncc(-c2ccc3[nH]nc(-c4nc5c(-c6cccc(F)c6)cncc5[nH]4)c3c2)c1 [Solvate 3, N-(5-(3-(7-(3-fluorophenyl)-3H-imidazo[4,5-c]pyridin-2-yl)-1H-indazol-5-yl)pyridin-3-yl)-3-methylbutanamide]
- Dry (form by XRD) [5, 16]: Form 2
- Wet (form by XRD) [5, 16]: Solvate 3
